Measurements from patent publication US20230203063A1, “TRICYCLIC PYRIDONES AND PYRIMIDONES” (Erasca, Inc., priority 2019, published 2023).

target: T1, mutant G12C K-RAS (Homo sapiens, UniProt P01116, G12C); assay: covalent adduct formation (CAF) with mutant G12C K-RAS; assay type: binding; design: covalent adduct formation (CAF): unit not given here; conditions: Table 1; 10 micromolar, after 60 minutes
T1 construct: made in house; host or cells: E. coli BL21
Description: Embodiments disclosed herein are further illustrated by the following examples in Tables 1-4 and the Examples hereinbelow. The Tables indicate the compound number, structure, the observed mass spectral molecular weight peak, and covalent adduct formation (CAF) with a mutant G12C K-RAS after 60 minutes at a concentration of 10 micromolar.

| % CAF(60 min) [%] | Compound |
| --- | --- |
| 89 | C=CC(=O)N1CCN(c2nc(=O)n3c4c(c(-c5c(O)cccc5F)c(Cl)cc24)OCC3)CC1 [Example 1, 7-(4-acryloylpiperazin-1-yl)-9-chloro-10-(2-fluoro-6-hydroxyphenyl)-2H-[1,4]oxazino[2,3,4-ij]quinazolin-5(3H)-one] |
| 67.4 | C=CC(=O)N1CCN(c2nc(=O)n3c4c(c(-c5c(C)ccc6[nH]ncc56)c(Cl)cc24)OCC3)CC1 [Example 3, 7-(4-acryloylpiperazin-1-yl)-9-chloro-10-(5-methyl-1H-indazol-4-yl)-2H-[1,4]oxazino[2,3,4-ij]quinazolin-5(3H)-one] |
| 42.5 | C=CC(=O)N1CC2(CCN(c3nc(=O)n4c5c(c(-c6c(O)cccc6F)c(Cl)cc35)OCC4)CC2)C1 [Example 2, 7-(2-acryloyl-2,7-diazaspiro[3.5]nonan-7-yl)-9-chloro-10-(2-fluoro-6-hydroxyphenyl)-2H-[1,4]oxazino[2,3,4-ij]quinazolin-5(3H)-one] |

same assay, conditions: Table 4; 10 micromolar, after 60 minutes

| % CAF(60 min) [%] | Compound |
| --- | --- |
| 0 | C=CC(=O)N1C[C@H](C)N(c2c(C#N)c(=O)n3c4c(c(-c5ccc(F)cc5F)ccc24)OC[C@@H]3CN(C)C)C[C@H]1C [Example 51, (S)-7-((2S,5R)-4-acryloyl-2,5-dimethylpiperazin-1-yl)-10-(2,4-difluorophenyl)-3-((dimethylamino)methyl)-5-oxo-3,5-dihydro-2H-[1,4]oxazino[2,3,4-ij]quinoline-6-carbonitrile] |

same assay, conditions: Table 6; 10 uM, 1 h

| % CAF @ 10 uM, 1 h [%] | Compound |
| --- | --- |
| 0 | C=CC(=O)N1CCN(c2nc(=O)n3c4c(c(-c5c(O)cccc5F)c(Cl)cc24)OC[C@@H]3CN2CCOCC2)[C@@H](C)C1 [Example 195, (3S,10R)-7-((S)-4-acryloyl-2-methylpiperazin-1-yl)-9-chloro-10-(2-fluoro-6-hydroxyphenyl)-3-(morpholinomethyl)-2,3-dihydro-5H-[1,4]oxazino[2,3,4-ij]quinazolin-5-one] |
| 0 | C=CC(=O)N1C[C@H](C)N(c2nc(=O)n3c4c(c(-c5c(O)cccc5F)c(Cl)cc24)OC[C@@H]3CN2CCOCC2)C[C@H]1C (atropisomer, axis not shown) [Example 208, (3R,10R)-7-((2S,5R)-4-acryloyl-2,5-dimethyl-piperazin-1-yl)-9-chloro-10-(2-fluoro-6-hydroxyphenyl)-3-(morpholinomethyl)-2,3-dihydro-5H-[1,4]-oxazino[2,3,4-ij]-quinazolin-5-one] |
| 0 | C=CC(=O)N1C[C@H](C)N(c2nc(=O)n3c4c(c(-c5c(O)cccc5F)c(Cl)cc24)OC[C@H]3CN2CCOCC2)C[C@H]1C (atropisomer, axis not shown) [Example 210, (3R,10R)-7-((2S,5R)-4-acryloyl-2,5-dimethyl-piperazin-1-yl)-9-chloro-10-(2-fluoro-6-hydroxyphenyl)-3-(morpholinomethyl)-2,3-dihydro-5H-[1,4]-oxazino-[2,3,4-ij]-quinazolin-5-one] |
| 100 | C=CC(=O)N1CCN(c2nc(=O)n3c4c(c(-c5c(O)cccc5F)c(Cl)cc24)OC[C@H]3CN2CCOCC2)[C@@H](C)C1 [Example 198, (3R,10S)-7-((S)-4-acryloyl-2-methvlpiperazin-1-yl)-9-chloro-10-(2-fluoro-6-hydroxyphenyl)-3-(morpholinomethyl)-2,3-dihydro-5H-[1,4]oxazino[2,3,4-ij]quinazolin-5-one] |

The next lines start with the molecule.

| Compound | % CAF @ 10 uM, 1 h [%] |
| --- | --- |
| C=CC(=O)N1C[C@H](C)N(c2nc(=O)n3c4c(c(-c5c(F)ccc6[nH]nnc56)ccc24)OCC3)C[C@H]1C [Example 223, 7-((2S,5R)-4-acryloyl-2,5-dimethylpiperazin-1-yl)-10-(5-fluoro-1H-benzo[d][1,2,3]triazol-4-yl)-2,3-dihydro-5H-[1,4]oxazino[2,3,4-ij]quinazolin-5-one] | 0 |
| C=CC(=O)N1C[C@H](C)N(c2nc(=O)n3c4c(c(-c5c(C)ccc6[nH]ncc56)c(Cl)cc24)OC[C@H]3Cn2cccn2)C[C@H]1C (atropisomer, axis not shown) [Example 319, (3R,10S)-3-((1H-pyrazol-1-yl)methyl)-7-((2S,5R)-4-acryloyl-2,5-dimethylpiperazin-1-yl)-9-chloro-10-(5-methyl-1H-indazol-4-yl)-2,3-dihydro-5H-[1,4]oxazino[2,3,4-ij]-quinazolin-5-one] | 0 |
| C=CC(=O)N1C[C@H](C)N(c2nc(=O)n3c4c(c(-c5c(O)cccc5F)c(Cl)cc24)OC[C@H]3CN(C)CC(F)(F)F)C[C@H]1C (atropisomer, axis not shown) [Example 241, (3R,10R)-7-((2S,5R)-4-acryloyl-2,5-dimethylpiperazin-1-yl)-9-chloro-10-(2-fluoro-6-hydroxyphen-yl)-3-((methyl(2,2,2-trifluoroethyl)amino)-methyl)-2H-[1,4]-oxazino[2,3,4-ij]-quinazolin-5(3H)-one] | 0 |
| C=CC(=O)N1C[C@H](C)N(c2nc(=O)n3c4c(c(-c5c(F)ccc6[nH]cnc56)ccc24)OCC3)C[C@H]1C [Example 201, 7-((2S,5R)-4-acryloyl-2,5-dimethylpiperazin-1-yl)-10-(5-fluoro-1H-benzo[d]imidazol-4-yl)-2,3-dihydro-5H-[1,4]oxazino[2,3,4-ij]quinazolin-5-one] | 0 |
| C=CC(=O)N1C[C@H](C)N(c2nc(=O)n3c4c(c(-c5ccc(F)cc5F)c(Cl)cc24)OC[C@H]3CCCN2C3CCC2CN(C)C3)C[C@H]1C [Example 321, (3R)-7-((2S,5R)-4-acryloyl-2,5-dimethylpiperazin-1-yl)-9-chloro-10-(2,4-difluorophenyl)-3-(3-(3-methyl-3,8-diazabicyclo[3.2.1]octan-8-yl)propyl)-2,3-dihydro-5H-[1,4]oxazino [2,3,4-ij] quinazolin-5-one] | 71.2 |
| C=CC(=O)N1C[C@H](C)N(c2nc(=O)n3c4c(c(-c5c(F)ccc6c5C(=O)NC6)ccc24)OCC3)C[C@H]1C [Example 231, 7-((2S,5R)-4-acryloyl-2,5-dimethylpiperazin-1-yl)-10-(5-fluoro-3-oxoisoindolin-4-yl)-2,3-dihydro-5H-[1,4]oxazino[2,3,4-ij]quinazolin-5-one] | 0 |
| C=CC(=O)N1C[C@H](C)N(c2nc(=O)n3c4c(c(-c5c(C)ccc6[nH]ncc56)c(Cl)cc24)OC[C@@H]3CCCN2C3CCC2COC3)C[C@H]1C [Example 281, (3S,10S)-3-(3-(3-oxa-8-azabicyclo[3.2.1]octan-8-yl)propyl)-7-((2S,5R)-4-acryloyl-2,5-dimethylpiperazin-1-yl)-9-chloro-10-(5-methyl-1H-indazol-4-yl)-2,3-dihydro-5H-[1,4]oxazino [2,3,4-ij] quinazolin-5-one] | 0 |
| C=CC(=O)N1C[C@H](C)N(c2nc(=O)n3c4c(c(-c5ccccc5C(F)(F)F)c(Cl)cc24)OCC3)C[C@H]1C [Example 197, 7-((2S,5R)-4-acryloyl-2,5-dimethylpiperazin-1-yl)-9-chloro-10-(2-(trifluoromethyl)phenyl)-2,3-dihydro-5H-[1,4]oxazino[2,3,4-ij]quinazolin-5-one] | 0 |

same assay, conditions: Table 7; 10 micromolar, after 60 minutes

| covalent adduct formation (CAF) | Compound |
| --- | --- |
| 82.4 | C=CC(=O)N1CCN(c2nc(=O)n3c4c(c(-c5ccc(F)cc5F)c(Cl)cc24)SC[C@H]3CC2CCN(C)CC2)[C@@H](C)C1 [Example 345, (3R)-7-((S)-4-acryloyl-2-methylpiperazin-1-yl)-9-chloro-10-(2,4-difluorophenyl)-3-((1-methylpiperidin-4-yl)-methyl)-2H-[1,4]-thiazino-[2,3,4-ij]-quinazolin-5(3H)-one] |
| 86.8 | C=CC(=O)N1CCN(c2nc(=O)n3c4c(c(-c5ccc(F)cc5F)c(Cl)cc24)SC(C)(C)C3)[C@@H](C)C1 [Example 76, 7-((S)-4-acryloyl-2-methylpiperazin-1-yl)-9-chloro-10-(2,4-difluorophenyl)-2,2-dimethyl-2,3-dihydro-5H-[1,4]thiazino[2,3,4-ij]quinazolin-5-one] |
| 96.6 | C=CC(=O)N1CCN(c2nc(=O)n3c4c(c(-c5c(F)cc(F)cc5F)c(Cl)cc24)SC[C@H]3CCCN2C[C@@H]3C[C@H]2CO3)[C@@H](C)C1 [Example 339, (R)-3-(3-((1S,4S)-2-oxa-5-azabicyclo-[2.2.1]heptan-5-yl)-propyl)-7-((S)-4-acryloyl-2-methyl-piperazin-1-yl)-9-chloro-10-(2,4,6-trifluorophenyl)-2H-[1,4]thiazino[2,3,4-ij]-quinazolin-5(3H)-one] |
| 96.7 | C=CC(=O)N1CCN(c2nc(=O)n3c4c(c(-c5c(F)cc(F)cc5F)c(Cl)cc24)SC[C@@H]3CC2CCN(C)CC2)[C@@H](C)C1 [Example 343, (S)-7-((S)-4-acryloyl-2-methylpiperazin-1-yl)-9-chloro-3-((1-methylpiperidin-4-yl)-methyl)-10-(2,4,6-trifluorophenyl)-2H-[1,4]thiazino[2,3,4-ij]-quinazolin-5(3H)-one] |
| 79.3 | C=CC(=O)N1CCN(c2nc(=O)n3c4c(c(-c5ccc(F)cc5F)c(Cl)cc24)SC[C@H]3CN2CCN(CC)CC2)[C@@H](C)C1 [Example 346, (3R)-7-((S)-4-acryloyl-2-methylpiperazin-1-yl)-9-chloro-10-(2,4-difluorophenyl)-3-((4-ethylpiperazin-1-yl)-methyl)-2H-[1,4]-thiazino[2,3,4-ij]-quinazolin-5(3H)-one] |
| 87.2 | C=CC(=O)N1CCN(c2nc(=O)n3c4c(c(-c5ccc(F)cc5F)c(Cl)cc24)SC[C@H]3C)[C@@H](C)C1 [Example 99, (3R)-7-((S)-4-acryloyl-2-methylpiperazin-1-yl)-9-chloro-10-(2,4-difluorophenyl)-3-methyl-2H-[1,4]thiazino[2,3,4-ij]quinazolin-5(3H)-one] |
| 94.8 | C=CC(=O)N1CCN(c2nc(=O)n3c4c(c(-c5c(F)cc(F)cc5F)c(Cl)cc24)SC[C@H]3CC2CCN(C)CC2)[C@@H](C)C1 [Example 344, (R)-7-((S)-4-acryloyl-2-methylpiperazin-1-yl)-9-chloro-3-((1-methylpiperidin-4-yl)-methyl)-10-(2,4,6-trifluorophenyl)-2H-[1,4]thiazino[2,3,4-ij]-quinazolin-5(3H)-one] |
